Test results from article PMC8597734 (Antimicrobial Agents and Chemotherapy, 2021).
Values after ≈ are worked out from the molar mass of the structure shown. Read-outs that look alike come from different tables or passages of the source.

What was measured:
[1] = test system: anaerobic, nonreplicating M. abscessus Bamboo; experiment: MBC determination under anaerobic conditions; format: cell-based, Mycobacterium abscessus; conditions: 48 h drug exposure
[2] = test system: M. abscessus subsp. bolletii M506; experiment: microbe, parasite or virus in culture; format: cell-based, Mycobacterium abscessus; conditions: Mycobacteroides abscessus, 72 h
[3] = test system: M. abscessus Bamboo biofilms; experiment: Biofilm growth inhibition assay (biofilm MIC and MBC); format: cell-based, Mycobacterium abscessus
Method: The biofilm growth inhibition assay was performed as previously described ([52]). Innovotech MBEC 96-well Biofilm Assay Plates (Innovotech 19111, Edmonton, AB, Alberta, Canada) were used, and the supplier’s manual was followed with minor modifications. Midlog phase M. abscessus Bamboo precultures (OD600 = 0.4–0.6) were spun down at 3,200 × g for 10 min at 25°C and washed with 7H9 medium without Tween 80 (7H9nt). Bacteria were resuspended into 25 ml 7H9nt to an OD600 = 0.0125 (1.0 × 10^6 CFU/ml). 150 μl of bacteria suspension was dispensed into each well of MBEC multititer plates and the polystyrene protrusions (pegs) of the MBEC lid were inserted into the culture-containing wells for 24 h at 37°C on an orbital shaker at 110 rpm to allow attachment of the bacteria to the pegs and initiation of biofilm growth. The lids with the pegs (now with 1-day-old biofilms) were transferred to new MBEC multititer plates containing 150 μl of fresh 7H9nt medium per well without bacteria (0 h time point). After that, the lids with biofilm-laden pegs were transferred once a day to a new multititer plate containing fresh 7H9nt medium. To measure growth of the biofilm formed on the peg, the pegs were washed in 200 μl of 7H9nt medium before they were aseptically removed and placed in 1.7 ml microcentrifuge tubes (VWR 87003-294, Rador, PA, United States) containing 500 μl PBS/Tween 80. The microcentrifuge tubes were vigorously vortexed at 2,000 rpm for 90 s at 25°C to detach the bacteria from the pegs before samples were serially diluted and plated for the determination of CFU/peg. […] The average drug-free biofilm growth was calculated by subtracting the average 24 h CFU/peg value from the average 72 h CFU/peg value for the untreated control pegs. The biofilm MIC was defined as the lowest drug concentration that reduced the CFU/peg by 90% relative to the average drug-free biofilm growth.

[4] = test system: M. abscessus Bamboo RM3 (GyrA D91N); experiment: microbe, parasite or virus in culture; format: cell-based, Mycobacterium abscessus
[5] = test system: M. abscessus subsp. bolletii M232; experiment: microbe, parasite or virus in culture; format: cell-based, Mycobacterium abscessus; conditions: Mycobacteroides abscessus, 72 h
[6] = test system: M. abscessus subsp. bolletii CCUG 50184T; experiment: microbe, parasite or virus in culture; format: cell-based, Mycobacterium abscessus; conditions: Mycobacteroides abscessus, 72 h
[7] = test system: M. abscessus subsp. abscessus M337; experiment: microbe, parasite or virus in culture; format: cell-based, Mycobacterium abscessus; conditions: Mycobacteroides abscessus, 72 h
Tolerability in mice = format: in vivo, mouse; conditions: tolerated at doses up to
[8] = test system: M. abscessus Bamboo RM2 (GyrA D91N); experiment: microbe, parasite or virus in culture; format: cell-based, Mycobacterium abscessus
[9] = test system: M. abscessus subsp. massiliense M111; experiment: microbe, parasite or virus in culture; format: cell-based, Mycobacterium abscessus; conditions: Mycobacteroides abscessus, 72 h
human serum albumin = target: T1, human serum albumin (Homo sapiens, UniProt P02768); experiment: Drug binding to human serum albumin (HSA HPLC column); format: in vitro ADME; conditions: immobilized human serum albumin HPLC column, pH 7.4, read-out: Protein binding (converted)
T1 construct: purchased Chiral Technologies Ltd., France
T1 sequence (P02768 25-609): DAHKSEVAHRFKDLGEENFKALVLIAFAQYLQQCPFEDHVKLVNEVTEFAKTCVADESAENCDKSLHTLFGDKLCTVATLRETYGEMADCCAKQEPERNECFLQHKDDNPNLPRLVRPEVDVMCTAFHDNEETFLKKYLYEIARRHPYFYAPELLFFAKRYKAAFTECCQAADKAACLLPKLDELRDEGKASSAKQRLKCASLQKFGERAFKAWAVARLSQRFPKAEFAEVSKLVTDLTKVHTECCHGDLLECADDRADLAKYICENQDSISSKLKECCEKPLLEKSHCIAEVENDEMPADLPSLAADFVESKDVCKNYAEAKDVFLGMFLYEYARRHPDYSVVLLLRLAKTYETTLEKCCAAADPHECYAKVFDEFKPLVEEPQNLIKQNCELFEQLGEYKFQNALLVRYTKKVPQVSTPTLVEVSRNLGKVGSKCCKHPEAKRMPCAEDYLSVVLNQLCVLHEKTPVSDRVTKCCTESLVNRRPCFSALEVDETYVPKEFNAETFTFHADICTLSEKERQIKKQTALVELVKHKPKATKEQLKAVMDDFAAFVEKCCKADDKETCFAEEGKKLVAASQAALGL

[10] = test system: M. abscessus subsp. abscessus ATCC 19977; experiment: microbe, parasite or virus in culture; format: cell-based, Mycobacterium abscessus; conditions: Mycobacteroides abscessus
[11] = test system: M. abscessus ATCC 19977 MXF_R1 (GyrA D96Y); experiment: microbe, parasite or virus in culture; format: cell-based, Mycobacterium abscessus; conditions: Mycobacteroides abscessus, ATCC19977
[12] = AMP (artificial membrane permeability) assay; format: in vitro ADME; conditions: PAMPA, pH 7.4
Method: An 8% L-a-phosphatidylcholine (EPC) in 1% cholesterol decane solution and a 1.8% EPC in cholesterol decane solution were prepared. The lipid solution was aliquoted into 4 ml capped vials, sealed with parafilm and stored in −20°C freezer. The lipid solution was then transferred from 4 ml vial into a 96-well half area plate (130 μl/well) for daily assay usage. An additional 50 mM phosphate buffer with 0.5% encapsin, pH at 7.4 was prepared. The assay was run by the Biomek FX and Biomek software. The assay procedure is written under the Biomek software. For one batch assay, it can test two 96-well sample plates with at least one standard on each sample plate. The total assay time was about 4 h. 3.5 μl of lipid solution were added to the filler plate, shaken for 12 s, and 250 μl of buffer were added to donor side and 100 μl to the receiver side. The assay plate was shaken for 45 min before adding the compounds. The test compounds (2.5 μl) were added to the donor side. The assay was run as replicates: Assay plates 1 and 2 tested the sample plate 1; assay plates 3 and 4 tested the sample plate 2. The assay plates were then incubated and shaken for 3 h at room temperature. The assay samples were transferred to the HPLC analysis plates and 100 μl of receiver solution were aspirated and transferred to the receiver for analysis. […] Compound concentration was measured by HPLC at different time points.

[13] = test system: M. abscessus subsp. abscessus M404; experiment: microbe, parasite or virus in culture; format: cell-based, Mycobacterium abscessus; conditions: Mycobacteroides abscessus, 72 h
[14] = test system: M. abscessus subsp. abscessus M199; experiment: microbe, parasite or virus in culture; format: cell-based, Mycobacterium abscessus; conditions: Mycobacteroides abscessus, 72 h
M. abscessus Bamboo [15] = experiment: MIC and MBC determination in culture tubes (planktonic); format: cell-based, Mycobacterium abscessus; conditions: Mycobacteroides abscessus
M. avium 11 = experiment: microbe, parasite or virus in culture; format: cell-based; conditions: Mycobacterium avium, 11, 96 h
[16] = test system: M. abscessus subsp. abscessus M422; experiment: microbe, parasite or virus in culture; format: cell-based, Mycobacterium abscessus; conditions: Mycobacteroides abscessus, 72 h
[17] = test system: M. intracellulare ATCC 13950; experiment: microbe, parasite or virus in culture; format: cell-based; conditions: Mycobacterium intracellulare, ATCC13950, 96 h
[18] = test system: M. abscessus Bamboo RM1 (GyrA M129K); experiment: microbe, parasite or virus in culture; format: cell-based, Mycobacterium abscessus
M. abscessus Bamboo [19] = experiment: microbe, parasite or virus in culture; format: cell-based, Mycobacterium abscessus; conditions: Mycobacteroides abscessus, 72 h

`COc1cnc2ccc(=O)n(CCN3CCC(NCc4cnc(CO)c(Cl)c4)CC3)c2c1` [EC/11716] showed an MBC [1] of over 100 µM, an MBC ([1]; Mycobacteroides abscessus) of over 100 µM and an MIC [2] of 5.2 µM (≈ 2.38 µg/mL). For the same compound, the “increase of biofilm MBC relative to planktonic MBC” value ([3]; M. abscessus Bamboo biofilm vs planktonic bacteria) was 2 fold, the MBC ([3]; Mycobacteroides abscessus, Biofilm, M. abscessus Bamboo, 10-fold reduction of CFU/peg vs 24 h) was 6.3 µM (≈ 2.89 µg/mL) and the MIC ([3]; Mycobacteroides abscessus, Biofilm, M. abscessus Bamboo, 90% reduction of CFU/peg relative to drug-free biofilm growth, 48 h) was 0.78 µM (≈ 0.357 µg/mL). It also gave an MIC [4] of over 100 µM, an MIC ([4]; Mycobacteroides abscessus) of over 100 µM and an MIC [5] of 2.5 µM (≈ 1.14 µg/mL). For the same compound, the MIC [6] was 4.1 µM (≈ 1.88 µg/mL), the MIC [7] was 2.4 µM (≈ 1.1 µg/mL) and the tolerated dose (Tolerability in mice) was “up to 550 mg/kg”. The MIC [8] was over 100 µM, the MIC ([8]; Mycobacteroides abscessus) was over 100 µM and the MIC [9] was 4.9 µM (≈ 2.24 µg/mL). For the same compound, the fraction unbound (human serum albumin) was 0.505, the MIC ([10]; ATCC19977) was 1.9 µM (≈ 0.87 µg/mL) and the MIC ([10]; ATCC19977, 72 h) was 1.8 µM (≈ 0.824 µg/mL). It also gave an MIC [11] of at most 10 µM, a Papp at 3 h [12] of 16 ×10⁻⁶ cm/s and an MIC [13] of 2.6 µM (≈ 1.19 µg/mL). The MIC [14] was 3.8 µM (≈ 1.74 µg/mL), the MBC (M. abscessus Bamboo [15]; 0 h, 10-fold reduction in CFU/ml vs day 0) was 3.1 µM (≈ 1.42 µg/mL) and the MIC (M. abscessus Bamboo [15]; 48 h, day 2) was 1.5 µM (≈ 0.687 µg/mL). It also gave an MIC (M. avium 11) of 1.1 µM (≈ 0.504 µg/mL), an MIC [16] of 1.8 µM (≈ 0.824 µg/mL) and an MIC [17] of 3.3 µM (≈ 1.51 µg/mL). For the same compound, the MIC [18] was over 100 µM, the MIC ([18]; Mycobacteroides abscessus) was over 100 µM and the MIC (M. abscessus Bamboo [19]) was 2.5 µM (≈ 1.14 µg/mL).
